# Data published in PubChem BioAssay (NCI).
#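 The compound was tested at five concentrations on cells cultured in 96-well plates, with a 48-hour exposure period. GI50 = concentration required for 50% inhibition of growth. TGI: total growth inhibition.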
# Experiments:
# Assay in all cases: DTP human tumour cell line panel, 48 h
# SNB-75 CNS = system: SNB-75 CNS
# KM12 colon = system: KM12 colon
# HOP-62 NSCLC = system: HOP-62 NSCLC
# UO-31 renal = system: UO-31 renal
# U251 CNS = system: U251 CNS
# EKVX NSCLC = system: EKVX NSCLC
# A498 renal = system: A498 renal
# NCI-H522 lung = system: NCI-H522 lung
# TK-10 renal = system: TK-10 renal
# UACC-257 melanoma = system: UACC-257 melanoma
# SF-539 CNS = system: SF-539 CNS
# MDA-MB-231 breast = system: MDA-MB-231 breast
# HCT-15 colon = system: HCT-15 colon
# BT-549 breast = system: BT-549 breast
# 786-0 renal = system: 786-0 renal
# HCT-116 colon = system: HCT-116 colon
# LOX IMVI melanoma = system: LOX IMVI melanoma
# T-47D breast = system: T-47D breast
# OVCAR-3 ovarian = system: OVCAR-3 ovarian
# NCI-H226 lung = system: NCI-H226 lung
# SNB-19 CNS = system: SNB-19 CNS
# DU-145 prostate = system: DU-145 prostate
# PC-3 prostate = system: PC-3 prostate
# NCI-H460 lung = system: NCI-H460 lung
# RPMI-8226 leukemia = system: RPMI-8226 leukemia
# K-562 leukemia = system: K-562 leukemia
# MALME-3M melanoma = system: MALME-3M melanoma
# HS 578T breast = system: HS 578T breast
# M14 melanoma = system: M14 melanoma
# HT29 colon = system: HT29 colon
# SK-MEL-5 melanoma = system: SK-MEL-5 melanoma
# OVCAR-5 ovarian = system: OVCAR-5 ovarian
# OVCAR-4 ovarian = system: OVCAR-4 ovarian
# OVCAR-8 ovarian = system: OVCAR-8 ovarian
# HCC-2998 colon = system: HCC-2998 colon
# SF-268 CNS = system: SF-268 CNS
# SN12C renal = system: SN12C renal
# ACHN renal = system: ACHN renal
# HOP-92 NSCLC = system: HOP-92 NSCLC
# HL-60(TB) leukemia = system: HL-60(TB) leukemia
# CAKI-1 renal = system: CAKI-1 renal
# COLO 205 colon = system: COLO 205 colon
# NCI/ADR-RES ovarian = system: NCI/ADR-RES ovarian
# SK-OV-3 ovarian = system: SK-OV-3 ovarian
# RXF 393 renal = system: RXF 393 renal
# MDA-MB-435 = system: MDA-MB-435
# SK-MEL-28 melanoma = system: SK-MEL-28 melanoma
# MOLT-4 leukemia = system: MOLT-4 leukemia
# SR leukemia = system: SR leukemia
# SW-620 colon = system: SW-620 colon
# SF-295 CNS = system: SF-295 CNS
# MCF7 breast = system: MCF7 breast
# SK-MEL-2 melanoma = system: SK-MEL-2 melanoma
# UACC-62 melanoma = system: UACC-62 melanoma
# NCI-H23 lung = system: NCI-H23 lung
# A549 NSCLC = system: A549 NSCLC
# IGROV1 ovarian = system: IGROV1 ovarian
# CCRF-CEM leukemia = system: CCRF-CEM leukemia
# MDA-N = system: MDA-N
smiles,measurement,setting,value
C=C(C)[C@@H]1CC[C@]2(C(N)=O)CC[C@]3(C)[C@H](CC[C@@H]4[C@@]5(C)C/C(=C/c6cccnc6)[C@H](O)C(C)(C)[C@@H]5CC[C@]43C)[C@@H]12,GI50,SNB-75 CNS,4.29 µM
same,TGI,SNB-75 CNS,> 100 µM
same,GI50,KM12 colon,3.82 µM
same,TGI,KM12 colon,> 100 µM
same,GI50,HOP-62 NSCLC,9.52 µM
same,TGI,HOP-62 NSCLC,> 100 µM
same,GI50,UO-31 renal,3.02 µM
same,TGI,UO-31 renal,> 100 µM
same,GI50,U251 CNS,4.61 µM
same,TGI,U251 CNS,> 100 µM
same,GI50,EKVX NSCLC,4.03 µM
same,TGI,EKVX NSCLC,> 100 µM
same,GI50,A498 renal,10.4 µM
same,TGI,A498 renal,> 100 µM
same,GI50,NCI-H522 lung,3.93 µM
same,TGI,NCI-H522 lung,> 100 µM
same,GI50,TK-10 renal,16.3 µM
same,TGI,TK-10 renal,> 100 µM
same,GI50,UACC-257 melanoma,5.83 µM
same,TGI,UACC-257 melanoma,> 100 µM
same,GI50,SF-539 CNS,4.89 µM
same,TGI,SF-539 CNS,> 100 µM
same,GI50,MDA-MB-231 breast,99.5 µM
same,TGI,MDA-MB-231 breast,> 100 µM
same,GI50,HCT-15 colon,2.6 µM
same,TGI,HCT-15 colon,> 100 µM
same,GI50,BT-549 breast,6.36 µM
same,TGI,BT-549 breast,> 100 µM
same,GI50,786-0 renal,6.24 µM
same,TGI,786-0 renal,> 100 µM
same,GI50,HCT-116 colon,2.22 µM
same,TGI,HCT-116 colon,> 100 µM
same,GI50,LOX IMVI melanoma,4.38 µM
same,TGI,LOX IMVI melanoma,37.1 µM
same,GI50,T-47D breast,3.38 µM
same,TGI,T-47D breast,> 100 µM
same,GI50,OVCAR-3 ovarian,5.02 µM
same,TGI,OVCAR-3 ovarian,> 100 µM
same,GI50,NCI-H226 lung,4.98 µM
same,TGI,NCI-H226 lung,> 100 µM
same,GI50,SNB-19 CNS,6.02 µM
same,TGI,SNB-19 CNS,> 100 µM
same,GI50,DU-145 prostate,7.08 µM
same,TGI,DU-145 prostate,> 100 µM
same,GI50,PC-3 prostate,2.94 µM
same,TGI,PC-3 prostate,> 100 µM
same,GI50,NCI-H460 lung,4.22 µM
same,TGI,NCI-H460 lung,> 100 µM
same,GI50,RPMI-8226 leukemia,2.5 µM
same,TGI,RPMI-8226 leukemia,48.3 µM
same,GI50,K-562 leukemia,3.4 µM
same,TGI,K-562 leukemia,> 100 µM
same,GI50,MALME-3M melanoma,4.91 µM
same,TGI,MALME-3M melanoma,> 100 µM
same,GI50,HS 578T breast,8.3 µM
same,TGI,HS 578T breast,> 100 µM
same,GI50,M14 melanoma,4.86 µM
same,TGI,M14 melanoma,> 100 µM
same,GI50,HT29 colon,3.68 µM
same,TGI,HT29 colon,> 100 µM
same,GI50,SK-MEL-5 melanoma,3.23 µM
same,TGI,SK-MEL-5 melanoma,12.4 µM
same,GI50,OVCAR-5 ovarian,3.61 µM
same,TGI,OVCAR-5 ovarian,> 100 µM
same,GI50,OVCAR-4 ovarian,3.31 µM
same,TGI,OVCAR-4 ovarian,> 100 µM
same,GI50,OVCAR-8 ovarian,4.54 µM
same,TGI,OVCAR-8 ovarian,> 100 µM
same,GI50,HCC-2998 colon,4.66 µM
same,TGI,HCC-2998 colon,> 100 µM
same,GI50,SF-268 CNS,6.8 µM
same,TGI,SF-268 CNS,> 100 µM
same,GI50,SN12C renal,4.82 µM
same,TGI,SN12C renal,> 100 µM
same,GI50,ACHN renal,3.53 µM
same,TGI,ACHN renal,> 100 µM
same,GI50,HOP-92 NSCLC,6.37 µM
same,TGI,HOP-92 NSCLC,> 100 µM
same,GI50,HL-60(TB) leukemia,2.69 µM
same,TGI,HL-60(TB) leukemia,11.2 µM
same,GI50,CAKI-1 renal,2.15 µM
same,TGI,CAKI-1 renal,28.4 µM
same,GI50,COLO 205 colon,3.1 µM
same,TGI,COLO 205 colon,12.4 µM
same,GI50,NCI/ADR-RES ovarian,3.74 µM
same,TGI,NCI/ADR-RES ovarian,> 100 µM
same,GI50,SK-OV-3 ovarian,5.26 µM
same,TGI,SK-OV-3 ovarian,> 100 µM
same,GI50,RXF 393 renal,3.61 µM
same,TGI,RXF 393 renal,52.5 µM
same,GI50,MDA-MB-435,3.77 µM
same,TGI,MDA-MB-435,> 100 µM
same,GI50,SK-MEL-28 melanoma,6.14 µM
same,TGI,SK-MEL-28 melanoma,> 100 µM
same,GI50,MOLT-4 leukemia,2.93 µM
same,TGI,MOLT-4 leukemia,> 100 µM
same,GI50,SR leukemia,4.31 µM
same,TGI,SR leukemia,> 100 µM
same,GI50,SW-620 colon,4.38 µM
same,TGI,SW-620 colon,> 100 µM
same,GI50,SF-295 CNS,3.75 µM
same,TGI,SF-295 CNS,> 100 µM
same,GI50,MCF7 breast,2.68 µM
same,TGI,MCF7 breast,> 100 µM
same,GI50,SK-MEL-2 melanoma,4.35 µM
same,TGI,SK-MEL-2 melanoma,42.9 µM
same,GI50,UACC-62 melanoma,5.38 µM
same,TGI,UACC-62 melanoma,> 100 µM
same,GI50,NCI-H23 lung,4.96 µM
same,TGI,NCI-H23 lung,> 100 µM
same,GI50,A549 NSCLC,3.37 µM
same,TGI,A549 NSCLC,> 100 µM
same,GI50,IGROV1 ovarian,3.85 µM
same,TGI,IGROV1 ovarian,> 100 µM
same,GI50,CCRF-CEM leukemia,3.86 µM
same,TGI,CCRF-CEM leukemia,> 100 µM
Cc1cn(C2CC(NC(=NCC3OC(n4cnc5c(N)ncnc54)CC3O)NC#N)C(CO)O2)c(=O)[nH]c1=O (stereo not drawn),TGI,SNB-75 CNS,> 100 µM
same,TGI,KM12 colon,> 100 µM
same,TGI,HOP-62 NSCLC,> 100 µM
same,TGI,UO-31 renal,> 100 µM
same,TGI,U251 CNS,> 100 µM
same,TGI,EKVX NSCLC,> 100 µM
same,TGI,A498 renal,> 100 µM
same,TGI,NCI-H522 lung,> 100 µM
same,TGI,TK-10 renal,> 100 µM
same,TGI,UACC-257 melanoma,> 100 µM
same,TGI,SF-539 CNS,> 100 µM
same,TGI,MDA-MB-231 breast,> 100 µM
same,TGI,HCT-15 colon,> 100 µM
same,TGI,786-0 renal,> 100 µM
same,TGI,HCT-116 colon,> 100 µM
same,TGI,LOX IMVI melanoma,> 100 µM
same,TGI,T-47D breast,> 100 µM
same,TGI,OVCAR-3 ovarian,> 100 µM
same,TGI,NCI-H226 lung,> 100 µM
same,TGI,SNB-19 CNS,> 100 µM
same,TGI,DU-145 prostate,> 100 µM
same,TGI,PC-3 prostate,> 100 µM
same,TGI,NCI-H460 lung,> 100 µM
same,TGI,K-562 leukemia,> 100 µM
same,TGI,MALME-3M melanoma,> 100 µM
same,TGI,HS 578T breast,> 100 µM
same,TGI,MDA-N,> 100 µM
same,TGI,M14 melanoma,> 100 µM
same,TGI,HT29 colon,> 100 µM
same,TGI,SK-MEL-5 melanoma,> 100 µM
same,TGI,OVCAR-5 ovarian,> 100 µM
same,TGI,OVCAR-4 ovarian,> 100 µM
same,TGI,OVCAR-8 ovarian,> 100 µM
same,TGI,HCC-2998 colon,> 100 µM
same,TGI,SF-268 CNS,> 100 µM
same,TGI,SN12C renal,> 100 µM
same,TGI,ACHN renal,> 100 µM
same,TGI,HOP-92 NSCLC,> 100 µM
same,TGI,HL-60(TB) leukemia,> 100 µM
same,TGI,CAKI-1 renal,> 100 µM
same,TGI,COLO 205 colon,> 100 µM
same,TGI,NCI/ADR-RES ovarian,> 100 µM
same,TGI,SK-OV-3 ovarian,> 100 µM
same,TGI,RXF 393 renal,> 100 µM
same,TGI,MDA-MB-435,> 100 µM
same,TGI,SK-MEL-28 melanoma,> 100 µM
same,TGI,MOLT-4 leukemia,> 100 µM
same,TGI,SR leukemia,> 100 µM
same,TGI,SW-620 colon,> 100 µM
same,TGI,SF-295 CNS,> 100 µM
same,TGI,MCF7 breast,> 100 µM
same,TGI,SK-MEL-2 melanoma,> 100 µM
same,TGI,UACC-62 melanoma,> 100 µM
same,TGI,NCI-H23 lung,> 100 µM
same,TGI,A549 NSCLC,> 100 µM
same,TGI,IGROV1 ovarian,> 100 µM
same,TGI,CCRF-CEM leukemia,> 100 µM
